Experimental data: ChEMBL document CHEMBL1123017, “Synthesis and antifertility activity of zoapatanol analogues” (1985)

Test system: Cavia porcellus
Experiment: Compound was evaluated for contragestational activity in guinea pig after intraperitoneal administration
Assay type: functional

Compound	Contragestational activity [mg/kg]
CC(C)CCC(O)C(C)CCC[C@]1(C)OC[C@]2(CC(=O)O)CC[C@H]1O2 (stereo partly specified)	<10
CC(C)=CCC(O)C(C)CCC[C@]1(C)OC[C@]2(CC=O)CC[C@H]1O2 (stereo partly specified)	<10
COC(=O)C[C@@]12CC[C@@H](O1)[C@](C)(CCCC(C)C(O)CC=C(C)C)OC2 (stereo partly specified)	<10
CC(C)=CCC(=O)C(C)CCC[C@]1(C)OC[C@]2(CCO)CC[C@H]1O2 (stereo partly specified)	<10
CC(C)=CCC(C)(O)C(C)CCC[C@]1(C)OC[C@]2(CC(=O)O)CC[C@H]1O2 (stereo partly specified)	<10
CC(C)=CCC(O)C(C)CCC[C@]1(C)OC[C@]2(CC(=O)O)CC[C@H]1O2 (stereo partly specified)	<10
CC(C)=CCC(=O)C(C)CCC[C@]1(C)OC[C@]2(CC=O)CC[C@H]1O2 (stereo partly specified)	<10
CC(C)CCC(O)C(C)CCC[C@]1(C)OC[C@]2(CC=O)CC[C@H]1O2 (stereo partly specified)	<10
CC(C)=CCC(=O)C(C)CCC[C@]1(C)OC[C@]2(CC(=O)O)CC[C@H]1O2 (stereo partly specified)	<10

Test system: Cavia porcellus
Experiment: Contragestational activity in guinea pig after intraperitoneal administration; Not Significant.
Assay type: functional

Compound	Contragestational activity [mg/kg]
C/C(=C\C(C)(O)C(C)CCC[C@]1(C)OC/C(=C/CO)CC[C@H]1O)C(C)C (stereo partly specified)	>100
CC(=O)O[C@@H]1CCC(=O)CO[C@@]1(C)CCCC(C)C(=O)O (stereo partly specified)	>100
CC(CCC[C@]1(C)OC/C(=C/CO)CC[C@H]1O)C(=O)/C=C/C(C)(C)OO (stereo partly specified)	>100
CC(CCC[C@]1(C)OC[C@]2(CC(=O)O)CC[C@H]1O2)C(=O)O (stereo partly specified)	>100
COC(=O)/C=C1\CC[C@@H](OC(C)=O)[C@](C)(CCCC(C)C(O)CC=C(C)C)OC1 (stereo partly specified)	>100
CC(CCC[C@]1(C)OC[C@]2(CC(=O)O)CC[C@H]1O2)C(=O)/C=C/C(C)(C)O (stereo partly specified)	>100
C/C(=C\C(=O)C(C)CCC[C@]1(C)OC/C(=C/CO)CC[C@H]1O)C(C)C (stereo partly specified)	>100
C/C(=C\C(=O)C(C)CCC[C@]1(C)OC[C@]2(C(=O)O)CC[C@H]1O2)C(C)C (stereo partly specified)	>100
COC(=O)C[C@@]12CC[C@@H](O1)[C@](C)(CCCC(C)CO)OC2 (stereo partly specified)	>100
C/C(=C\C(O)C(C)CCC[C@]1(C)OC/C(=C/CO)CC[C@H]1O)C(C)C (stereo partly specified)	>100
CC(CCC[C@]1(C)OC/C(=C/CO)CC[C@H]1O)C(=O)/C=C/C(C)(C)O (stereo partly specified)	>100
CC(C)CCC(=O)C(C)CCC[C@]1(C)OCC(CCO)CC[C@H]1O (stereo partly specified)	>100
C=C[C@@]12CC[C@@H](O1)[C@](C)(CCCC(C)C(=O)CC=C(C)C)OC2 (stereo partly specified)	>100
C#CC(O)(CC=C(C)C)C(C)CCC[C@]1(C)OC/C(=C/CO)CC[C@H]1O (stereo partly specified)	>100
CC(=O)OC/C=C1\CCC(=O)[C@](C)(CCCC(C)C(=O)CC=C(C)C)OC1 (stereo partly specified)	>100
CC(CCC[C@]1(C)OC[C@]2(CC(=O)O)CC[C@H]1O2)C(=O)CC(C)C(C)C (stereo partly specified)	>100

Test system: Cavia porcellus
Experiment: Compound was evaluated for contragestational activity in guinea pig after intraperitoneal administration; Range is 10-25
Assay type: functional

Compound	Contragestational activity [mg/kg]
CC(C)=CCC(C)(O)C(C)CCC[C@]1(C)OC/C(=C/CO)CC[C@H]1O (stereo partly specified)	10
CC(=O)O[C@@H]1CC/C(=C\C=O)CO[C@@]1(C)CCCC(C)C(=O)CC=C(C)C (stereo partly specified)	10
CC(C)=CCC(O)C(C)CCC[C@]1(C)OC[C@]2(C(=O)O)CC[C@H]1O2 (stereo partly specified)	10
C#CC(O)(CC=C(C)C)C(C)CCC[C@]1(C)OC[C@]2(CC(=O)O)CC[C@H]1O2 (stereo partly specified)	10
CC(C)CCC(O)C(C)CCC[C@]1(C)OC[C@]2(CCO)CC[C@H]1O2 (stereo partly specified)	10
CC(C)=CCC(O)C(C)CCC[C@]1(C)OC/C(=C/CO)CC[C@H]1O (stereo partly specified)	10

Test system: Cavia porcellus
Experiment: Compound was evaluated for contragestational activity in guinea pig after intraperitoneal administration; Range is 50-100
Assay type: functional

Compound	Contragestational activity [mg/kg]
C/C(=C\C(=O)C(C)CCC[C@]1(C)OC[C@]2(CC(=O)O)CC[C@H]1O2)C(C)C (stereo partly specified)	50
CC(=O)OC/C=C1\CC[C@@H](OC(C)=O)[C@](C)(CCCC(C)C(=O)CC=C(C)C)OC1 (stereo partly specified)	50
CC(=O)OC/C=C1\CC[C@@H](O)[C@](C)(CCCC(C)C(=O)CC=C(C)C)OC1 (stereo partly specified)	50
CC(C)=CCC(=O)C(C)CCC[C@]1(C)OC/C(=C/CO)CC[C@H]1O (stereo partly specified)	50
CC(C)=CCC(O)C(C)CCC[C@]1(C)OC[C@]2(CCO)CC[C@H]1O2 (stereo partly specified)	50
CC(=O)OC/C=C1\CC[C@@H](OC(C)=O)[C@](C)(CCCC(C)C(O)CC=C(C)C)OC1 (stereo partly specified)	50

Test system: Cavia porcellus
Experiment: Compound was evaluated for contragestational activity in guinea pig after intraperitoneal administration; Range is 25-50
Assay type: functional

Compound	Contragestational activity [mg/kg]
CC(=O)OC/C=C1\CC[C@@H](OC(C)=O)[C@](C)(CCCC(C)C(CC=C(C)C)OC(C)=O)OC1 (stereo partly specified)	50
CC(=O)O[C@@H]1CC/C(=C\CO)CO[C@@]1(C)CCCC(C)C(=O)CC=C(C)C (stereo partly specified)	25
CC(C)CCC(=O)C(C)CCC[C@]1(C)OC[C@]2(CC(=O)O)CC[C@H]1O2 (stereo partly specified)	25
CC(C)=CCC(=O)C(C)CCC[C@]1(C)OC[C@]2(C(=O)O)CC[C@H]1O2 (stereo partly specified)	25
